Tests used:
Assay type in all cases: functional
Malme-3M = test: Anticancer activity against human Malme-3M cells assessed as cell growth inhibition incubated for 48 hrs by SRB assay
SF-268 = test: Anticancer activity against human SF-268 cells assessed as cell growth inhibition incubated for 48 hrs by SRB assay
MDA-MB-231 = test: Anticancer activity against human MDA-MB-231 cells assessed as cell growth inhibition incubated for 48 hrs by SRB assay
RXF 393 = test: Anticancer activity against human RXF 393 cells assessed as cell growth inhibition incubated for 48 hrs by SRB assay
M14 = test: Anticancer activity against human M14 cells assessed as cell growth inhibition incubated for 48 hrs by SRB assay
SNB-19 = test: Anticancer activity against human SNB-19 cells assessed as cell growth inhibition incubated for 48 hrs by SRB assay
SN12C = test: Anticancer activity against human SN12C cells assessed as cell growth inhibition incubated for 48 hrs by SRB assay
OVCAR-3 = test: Anticancer activity against human OVCAR-3 cells assessed as cell growth inhibition incubated for 48 hrs by SRB assay
MDA-MB-435 = test: Anticancer activity against human MDA-MB-435 cells assessed as cell growth inhibition incubated for 48 hrs by SRB assay
SK-MEL-2 = test: Anticancer activity against human SK-MEL-2 cells assessed as cell growth inhibition incubated for 48 hrs by SRB assay
HCT-116 = test: Anticancer activity against human HCT-116 cells assessed as cell growth inhibition incubated for 48 hrs by SRB assay
Hs-578T = test: Anticancer activity against human Hs-578T cells assessed as cell growth inhibition incubated for 48 hrs by SRB assay
NCI-H522 = test: Anticancer activity against human NCI-H522 cells assessed as cell growth inhibition incubated for 48 hrs by SRB assay
NCI-H460 = test: Anticancer activity against human NCI-H460 cells assessed as cell growth inhibition incubated for 48 hrs by SRB assay
CAKI-1 = test: Anticancer activity against human CAKI-1 cells assessed as cell growth inhibition incubated for 48 hrs by SRB assay
UACC-62 = test: Anticancer activity against human UACC-62 cells assessed as cell growth inhibition incubated for 48 hrs by SRB assay
HOP-62 = test: Anticancer activity against human HOP-62 cells assessed as cell growth inhibition incubated for 48 hrs by SRB assay
NCI-H322M = test: Anticancer activity against human NCI-H322M cells assessed as cell growth inhibition incubated for 48 hrs by SRB assay
786-0 = test: Anticancer activity against human 786-0 cells assessed as cell growth inhibition incubated for 48 hrs by SRB assay
DU-145 = test: Anticancer activity against human DU-145 cells assessed as cell growth inhibition incubated for 48 hrs by SRB assay
K562 = test: Anticancer activity against human K562 cells assessed as cell growth inhibition incubated for 48 hrs by SRB assay
OVCAR-4 = test: Anticancer activity against human OVCAR-4 cells assessed as cell growth inhibition incubated for 48 hrs by SRB assay
EKVX = test: Anticancer activity against human EKVX cells assessed as cell growth inhibition incubated for 48 hrs by SRB assay
SF-539 = test: Anticancer activity against human SF-539 cells assessed as cell growth inhibition incubated for 48 hrs by SRB assay
SW-620 = test: Anticancer activity against human SW-620 cells assessed as cell growth inhibition incubated for 48 hrs by SRB assay
RPMI-8226 = test: Anticancer activity against human RPMI-8226 cells assessed as cell growth inhibition incubated for 48 hrs by SRB assay
OVCAR-8 = test: Anticancer activity against human OVCAR-8 cells assessed as cell growth inhibition incubated for 48 hrs by SRB assay
U-251 = test: Anticancer activity against human U-251 cells assessed as cell growth inhibition incubated for 48 hrs by SRB assay
UACC-257 = test: Anticancer activity against human UACC-257 cells assessed as cell growth inhibition incubated for 48 hrs by SRB assay
NCI-H226 = test: Anticancer activity against human NCI-H226 cells assessed as cell growth inhibition incubated for 48 hrs by SRB assay
HL-60(TB) = test: Anticancer activity against human HL-60(TB) cells assessed as cell growth inhibition incubated for 48 hrs by SRB assay
CCRF-CEM = test: Anticancer activity against human CCRF-CEM cells assessed as cell growth inhibition incubated for 48 hrs by SRB assay
SK-OV-3 = test: Anticancer activity against human SK-OV-3 cells assessed as cell growth inhibition incubated for 48 hrs by SRB assay
COLO 205 = test: Anticancer activity against human COLO 205 cells assessed as cell growth inhibition incubated for 48 hrs by SRB assay
SR = test: Anticancer activity against human SR cells assessed as cell growth inhibition incubated for 48 hrs by SRB assay
KM12 = test: Anticancer activity against human KM12 cells assessed as cell growth inhibition incubated for 48 hrs by SRB assay
A498 = test: Anticancer activity against human A498 cells assessed as cell growth inhibition incubated for 48 hrs by SRB assay
OVCAR-5 = test: Anticancer activity against human OVCAR-5 cells assessed as cell growth inhibition incubated for 48 hrs by SRB assay
HOP-92 = test: Anticancer activity against human HOP-92 cells assessed as cell growth inhibition incubated for 48 hrs by SRB assay
[1] = read-out: LC50 (the source's name)

Cc1nn(-c2ccccc2)cc1/C=N/Nc1nc(Nc2ccccc2)nc(Nc2ccc(S(N)(=O)=O)cc2)n1
GI50 (Malme-3M): 1600 nM
CC50 (Malme-3M; [1]): 6130 nM
GI50 (SF-268): 2930 nM
LC50 (concentration killing 50% of cells) (SF-268): > 100000 nM
GI50 (MDA-MB-231): 3110 nM
LC50 (concentration killing 50% of cells) (MDA-MB-231): > 100000 nM
GI50 (RXF 393): 1770 nM
CC50 (RXF 393; [1]): 6500 nM
GI50 (M14): 2060 nM
GI50 (SNB-19): 3440 nM
CC50 (SNB-19; [1]): > 100000 nM
GI50 (SN12C): 2940 nM
LC50 (SN12C): > 100000 nM
GI50 (OVCAR-3): 3180 nM
LC50 (concentration killing 50% of cells) (OVCAR-3): > 100000 nM
GI50 (MDA-MB-435): 1770 nM
LC50 (MDA-MB-435): 6780 nM
GI50 (SK-MEL-2): 1690 nM
GI50 (HCT-116): 2000 nM
LC50 (concentration killing 50% of cells) (HCT-116): > 100000 nM
GI50 (Hs-578T): 2770 nM
LC50 (concentration killing 50% of cells) (Hs-578T): > 100000 nM
GI50 (NCI-H522): 2660 nM
CC50 (NCI-H522; [1]): > 100000 nM
GI50 (NCI-H460): 2770 nM
CC50 (NCI-H460; [1]): > 100000 nM
GI50 (CAKI-1): 2010 nM
GI50 (UACC-62): 1780 nM
LC50 (UACC-62): 7190 nM
GI50 (HOP-62): 2830 nM
CC50 (HOP-62; [1]): > 100000 nM
GI50 (NCI-H322M): 2440 nM
CC50 (NCI-H322M; [1]): > 100000 nM
GI50 (786-0): 2130 nM
GI50 (DU-145): 3060 nM
LC50 (50% lethal concentration) (DU-145): > 100000 nM
GI50 (K562): 2630 nM
CC50 (K562; [1]): > 100000 nM
GI50 (OVCAR-4): 2550 nM
LC50 (concentration killing 50% of cells) (OVCAR-4): > 100000 nM
GI50 (EKVX): 2000 nM
CC50 (EKVX; [1]): 35100 nM
GI50 (SF-539): 1710 nM
CC50 (SF-539; [1]): 6250 nM
GI50 (SW-620): 3380 nM
CC50 (SW-620; [1]): > 100000 nM
GI50 (RPMI-8226): 1660 nM
LC50 (concentration killing 50% of cells) (RPMI-8226): > 100000 nM
GI50 (OVCAR-8): 2050 nM
LC50 (OVCAR-8): > 100000 nM
GI50 (U-251): 3650 nM
CC50 (U-251; [1]): > 100000 nM
GI50 (UACC-257): 2500 nM
LC50 (UACC-257): > 100000 nM
GI50 (NCI-H226): 1850 nM
CC50 (NCI-H226; [1]): > 100000 nM
GI50 (HL-60(TB)): 2240 nM
CC50 (HL-60(TB); [1]): > 100000 nM
GI50 (CCRF-CEM): 2090 nM
CC50 (CCRF-CEM; [1]): > 100000 nM
GI50 (SK-OV-3): 2930 nM
LC50 (SK-OV-3): > 100000 nM
GI50 (COLO 205): 2470 nM
CC50 (COLO 205; [1]): > 100000 nM
GI50 (SR): 2450 nM
CC50 (SR; [1]): > 100000 nM
GI50 (KM12): 2840 nM
CC50 (KM12; [1]): > 100000 nM
GI50 (A498): 1710 nM
CC50 (A498; [1]): 6710 nM
GI50 (OVCAR-5): 2060 nM
CC50 (OVCAR-5; [1]): > 100000 nM
GI50 (HOP-92): 2440 nM
CC50 (HOP-92; [1]): > 100000 nM
